Reference: patent US9169254B2, “Spiroimidazolone derivative” (Chugai Seiyaku Kabushiki Kaisha, priority 2009, dated 2015)

What follows are molecules tested against T1, human PTH1 receptor (Homo sapiens, UniProt Q03431) (assay: In vitro cAMP signal activity in HKRK-B7 cells (LLC-PK1 cells overexpressing the human PTH1 receptor)). Settings: HKRK-B7 cells; compound at 1×10^−3 M; […]; 0.1 µM.
T1 sequence (Q03431 27-593): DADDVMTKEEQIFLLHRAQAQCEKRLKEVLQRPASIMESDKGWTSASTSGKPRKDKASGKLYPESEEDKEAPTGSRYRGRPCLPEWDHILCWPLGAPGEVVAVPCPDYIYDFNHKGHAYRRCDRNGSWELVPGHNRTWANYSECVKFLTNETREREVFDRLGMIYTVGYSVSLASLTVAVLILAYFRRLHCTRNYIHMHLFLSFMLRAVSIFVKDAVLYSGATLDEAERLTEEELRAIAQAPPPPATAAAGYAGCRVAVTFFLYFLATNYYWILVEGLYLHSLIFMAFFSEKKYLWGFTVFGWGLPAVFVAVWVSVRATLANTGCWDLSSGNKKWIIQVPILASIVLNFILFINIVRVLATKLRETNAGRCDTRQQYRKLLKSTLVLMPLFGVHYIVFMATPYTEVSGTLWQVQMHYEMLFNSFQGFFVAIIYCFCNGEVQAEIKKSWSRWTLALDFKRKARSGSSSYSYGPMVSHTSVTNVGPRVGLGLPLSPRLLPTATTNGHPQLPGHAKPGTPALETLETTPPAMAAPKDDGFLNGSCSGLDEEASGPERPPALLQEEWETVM
Assay type: cell-based

Structure (SMILES) | cAMP production activity (%)
CNC(=O)Nc1cccc(CCS(=O)(=O)N2CCC3(CC2)N=C(C2CCCCC2)NC3=O)c1C [Compound 459, 1-{3-[2-(2-Cyclohexyl-4-oxo-1,3,8-triaza-spiro[4.5]dec-1-ene-8-sulfonyl)-ethyl]-2-methyl-phenyl}-3-methyl-urea] | 55

Same assay, conditions: HKRK-B7 cells; compound at 1×10^−3 M; cAMP produced as percentage of that produced by hPTH(1-34) at 100 nM

cAMP production activity (%) | Structure (SMILES)
92 | Cc1cc(N(C(N)=O)C(C)C)cc(C)c1CCS(=O)(=O)N1CCC2(CC1)N=C(C1CCC(C)CC1)NC2=O (stereo not drawn) [Compound 828, 1-(3,5-dimethyl-4-{2-[2-(4-methyl-cyclohexyl)-4-oxo-1,3,8-triaza-spiro[4.5]dec-1-ene-8-sulfonyl]-ethyl}-phenyl)-1-isopropyl-urea]
95 | CCCc1ccc(-c2cccc(C3=NC4(CCN(S(=O)(=O)/C=C/c5c(C)cc(N(C)C(N)=O)cc5C)CC4)C(=O)N3)c2)cc1 [Compound 1114, 1-(3,5-Dimethyl-4-{(E)-2-[4-oxo-2-(4′-propyl-biphenyl-3-yl)-1,3,8-triaza-spiro[4.5]dec-1-ene-8-sulfonyl]-vinyl}-phenyl)-1-methyl-urea]
64 | Cc1cc(C(=O)N2CCN(C)CC2)cc(C)c1/C=C/S(=O)(=O)N1CCC2(CC1)N=C(C1CCC(CCC(F)(F)F)CC1)NC2=O (stereo not drawn) [Compound 991, 8-{(E)-2-[2,6-dimethyl-4-(4-methyl-piperazine-1-carbonyl)-phenyl]-ethenesulfonyl}-2-[4-(3,3,3-trifluoro-propyl)-cyclohexyl]-1,3,8-triaza-spiro[4.5]dec-1-en-4-one]
86 | Cc1cc(C(=O)N(C)C)cc(C)c1CCS(=O)(=O)N1CCC2(CC1)N=C(C1CCC(C)CC1)NC2=O (stereo not drawn) [Compound 1379, 3,5,N,N-tetramethyl-4-{2-[2-(4-methyl-cyclohexyl)-4-oxo-1,3,8-triaza-spiro[4.5]dec-1-ene-8-sulfonyl]-ethyl}-benzamide]
90 | [2H]C([2H])([2H])C([2H])(Oc1ccc(C2=NC3(CCN(S(=O)(=O)/C=C/c4c(C)cc(C(=O)N5CCC(O)(CF)CC5)cc4C)CC3)C(=O)N2)cc1C(F)(F)F)C([2H])([2H])[2H] [Compound 1262, 8-{(E)-2-[4-(4-fluoromethyl-4-hydroxy-piperidine-1-carbonyl)-2,6-dimethyl-phenyl]-ethenesulfonyl}-2-(4-[1,2,2,2,2,2,2-^2H7]isopropoxy-3-trifluoromethyl-phenyl)-1,3,8-triaza-spiro[4.5]dec-1-en-4-one]
110 | Cc1cc(C(=O)N2CCC(O)CC2)cc(C)c1CC(F)(F)S(=O)(=O)N1CCC2(CC1)N=C(c1cccc(OC(F)(F)F)c1)NC2=O [Compound 1101, 8-{1,1-Difluoro-2-[4-(4-hydroxy-piperidine-1-carbonyl)-2,6-dimethyl-phenyl]-ethanesulfonyl}-2-(3-trifluoromethoxy-phenyl)-1,3,8-triaza-spiro[4.5]dec-1-en-4-one]
77 | CCC1CCC(C2=NC3(CCN(S(=O)(=O)CCc4cc(Cl)c(NC(C)=O)cc4C)CC3)C(=O)N2)CC1 (stereo not drawn) [Compound 953, N-(2-Chloro-4-{2-[2-(4-ethyl-cyclohexyl)-4-oxo-1,3,8-triaza-spiro[4.5]dec-1-ene-8-sulfonyl]-ethyl}-5-methyl-phenyl)-acetamide]
100 | COCCCCCCCC1=NC2(CCN(S(=O)(=O)CCc3c(C)cc(N(C)C(N)=O)cc3C)CC2)C(=O)N1 [Compound 1351, 1-(4-{2-[2-(7-methoxy-heptyl)-4-oxo-1,3,8-triaza-spiro[4.5]dec-1-ene-8-sulfonyl]-ethyl}-3,5-dimethyl-phenyl)-1-methyl-urea]
55 | CCCCCCCCCCCCCC1=NC2(CCN([S@TB18](=O)(=O)CCc3c(C)cc(N(C)C(N)=O)cc3C)CC2)C(=O)N1 [Compound 1140, 1-{3,5-dimethyl-4-[2-(4-oxo-2-tridecyl-1,3,8-triaza-spiro[4.5]dec-1-ene-8-sulfonyl)-ethyl]-phenyl}-1-methyl-urea]
99 | Cc1cc(C(=O)N2CCC(C)(O)CC2)cc(C)c1CCS(=O)(=O)N1CCC2(CC1)N=C(c1ccc(C(F)(F)F)c(Cl)c1)NC2=O [Compound 1236, 2-(3-chloro-4-trifluoromethyl-phenyl)-8-{2-[4-(4-hydroxy-4-methyl-piperidine-1-carbonyl)-2,6-dimethyl-phenyl]-ethanesulfonyl}-1,3,8-triaza-spiro[4.5]dec-1-en-4-one]
115 | Cc1cc(C(=O)N2CC(O)C2)cc(C)c1CCS(=O)(=O)N1CCC2(CC1)N=C(c1cccc(OC(F)(F)F)c1)NC2=O [Compound 965, 8-{2-[4-(3-hydroxy-azetidine-1-carbonyl)-2,6-dimethyl-phenyl]-ethanesulfonyl}-2-(3-trifluoromethoxy-phenyl)-1,3,8-triaza-spiro[4.5]dec-1-en-4-one]

Continued, molecule first:

Structure (SMILES) | cAMP production activity (%)
Cc1cc(C(=O)N2CCN(CCCO)CC2)ccc1CCS(=O)(=O)N1CCC2(CC1)N=C(c1cccc(C(F)(F)F)c1)NC2=O [Compound 366, 8-(2-{4-[4-(3-hydroxy-propyl)-piperazine-1-carbonyl]-2-methyl-phenyl}-ethanesulfonyl)-2-(3-trifluoromethyl-phenyl)-1,3,8-triaza-spiro[4.5]dec-1-en-4-one] | 85
CC(=O)N(C)Cc1cc(C)c(/C=C/S(=O)(=O)N2CCC3(CC2)N=C(C2CCC(C)CC2)NC3=O)c(C)c1 (stereo not drawn) [Compound 517, N-(3,5-dimethyl-4-{(E)-2-[2-(4-methyl-cyclohexyl)-4-oxo-1,3,8-triaza-spiro[4.5]dec-1-ene-8-sulfonyl]-vinyl}-benzyl)-N-methyl-acetamide] | 58
Cc1cc(NCCN(C)C)ccc1/C=C/S(=O)(=O)N1CCC2(CC1)N=C(C1CCCCC1)NC2=O [Compound 497, 2-cyclohexyl-8-{(E)-2-[4-(2-dimethylamino-ethylamino)-2-methyl-phenyl]-ethenesulfonyl}-1,3,8-triaza-spiro[4.5]dec-1-en-4-one] | 38
Cc1ccccc1C1=NC2(CCN(S(=O)(=O)c3cccc(Cl)c3)CC2)C(=O)N1 [Compound 11, 8-(3-chloro-benzenesulfonyl)-2-o-tolyl-1,3,8-triaza-spiro[4.5]dec-1-en-4-one] | 16
CCCCCCCCCC1=NC2(CCN(S(=O)(=O)CCc3c(C)cc(OCCC(O)CO)cc3C)CC2)C(=O)N1 (stereo not drawn) [Compound 798, 8-{2-[4-(3,4-dihydroxy-butoxy)-2,6-dimethyl-phenyl]-ethanesulfonyl}-2-nonyl-1,3,8-triaza-spiro[4.5]dec-1-en-4-one] | 101
O=C1NC(C2CCCCC2)=NC12CCN(S(=O)(=O)CCc1cccc3[nH]ccc13)CC2 [Compound 303, 2-Cyclohexyl-8-[2-(1H-indol-4-yl)-ethanesulfonyl]-1,3,8-triaza-spiro[4.5]dec-1-en-4-one] | 76
CC(=O)OC[C@H](CN(C(C)=O)c1ccc(CCS(=O)(=O)N2CCC3(CC2)N=C(c2ccc(F)c(C(F)(F)F)c2)NC3=O)c(C)c1)OC(C)=O [Compound 153, acetic acid (S)-1-acetoxymethyl-2-[acetyl-(4-{2-[2-(4-fluoro-3-trifluoromethyl-phenyl)-4-oxo-1,3,8-triaza-spiro[4.5]dec-1-ene-8-sulfonyl]-ethyl}-3-methyl-phenyl)-amino]-ethyl ester] | 59
Cc1cc(N(C(N)=O)C(C)C)cc(C)c1/C=C/S(=O)(=O)N1CCC2(CC1)N=C(C1CCC(C)CC1)NC2=O (stereo not drawn) [Compound 726, 1-(3,5-Dimethyl-4-{(E)-2-[2-(4-methyl-cyclohexyl)-4-oxo-1,3,8-triaza-spiro[4.5]dec-1-ene-8-sulfonyl]-vinyl}-phenyl)-1-isopropyl-urea] | 75
CC(=O)N(CCOCCO)c1ccc(CCS(=O)(=O)N2CCC3(CC2)N=C(C2CCC(CCC(F)(F)F)CC2)NC3=O)c(C)c1 (stereo not drawn) [Compound 758, N-[2-(2-hydroxy-ethoxy)-ethyl]-N-[3-methyl-4-(2-{4-oxo-2-[4-(3,3,3-trifluoro-propyl)-cyclohexyl]-1,3,8-triaza-spiro[4.5]dec-1-ene-8-sulfonyl}-ethyl)-phenyl]-acetamide] | 98
Cc1c(CCS(=O)(=O)N2CCC3(CC2)N=C(c2cccc(OC(F)(F)F)c2)NC3=O)cccc1C(=O)N(C)C [Compound 409, 2,N,N-Trimethyl-3-{2-[4-oxo-2-(3-trifluoromethoxy-phenyl)-1,3,8-triaza-spiro[4.5]dec-1-ene-8-sulfonyl]-ethyl}-benzamide] | 55
O=C1NC(C2CCCCC2)=NC12CCN(S(=O)(=O)CCc1csc3ccccc13)CC2 [Compound 319, 8-(2-benzo[b]thiophen-3-yl-ethanesulfonyl)-2-cyclohexyl-1,3,8-triaza-spiro[4.5]dec-1-en-4-one] | 31
Cc1cc(C(=O)N2CCCC2)ccc1CCS(=O)(=O)N1CCC2(CC1)N=C(c1cccc(C(F)(F)F)c1)NC2=O [Compound 288, 8-{2-[2-methyl-4-(pyrrolidine-1-carbonyl)-phenyl]-ethanesulfonyl}-2-(3-trifluoromethyl-phenyl)-1,3,8-triaza-spiro[4.5]dec-1-en-4-one] | 82
